Data published in publication PMC3573960 (Molecular Neurodegeneration, 2012).
Like-named read-outs stand apart in the source and are kept apart here. Marks after values point to notes of the source that are not given here.

What was measured:
Tg2576 mice [1] = assay: Contextual fear conditioning assay
Procedure: Animals in the food formulation groups were maintained on the compound formulated diets. The training session on day 1 consisted of the following sequence: 3 min acclimation to the test chamber (Kinder Scientific, Poway, CA), 2 s 1.5 mA foot shock, 2 min wait period, another 2 s 1.5 mA foot shock, followed by a final 1 min wait period. On day 2, testing consisted of returning the animals to the chamber for 5 min and the total time spent freezing was measured by an automated software system (Kinder Scientific). […] Percentage of time spent freezing for each mouse was calculated using the formula: (number of seconds with zero beam breaks/300) X 100.

[2] = Measurement of EVP-0015962 in brain (LC-MS/MS); assay type: in vivo, mouse; conditions: for range of brain concentrations: C57BL/6 mice, 3 or 7 days; for concentration at 50 weeks: male, mouse, brain (cerebellum), oral
Procedure: Mice were placed on the food formulations for 3 or 7 days and were euthanized, as described above, approximately 1 h after the onset of the light cycle.
(§1) Male Tg2576 and WT mice were both derived from crosses of male Tg2576 mice and female B6SJLF1 mice (Taconic) and were singly housed upon arrival. […] Some animals were euthanized as described above. For histological studies, a subset of mice were euthanized by CO2 asphyxiation and transcardially perfused with cold 0.9% NaCl. […] The left cerebral hemisphere was cut into 2 pieces, weighed, and frozen.
Cerebellums were homogenized in a Mini-BeadBeater (Biospec Products, Inc., Bartlesville, OK).

Tg2576 mice [3] = conditions: mean (sem)
Text: as §1
The right hemispheres were sectioned at 20 μm in the sagittal plane. From 12 levels, 7 sections were retained and processed. Aβ plaque load was quantified in sections doubly stained by immunohistochemistry with 6E10 antibody (N-terminal human Aβ, aa 1–16) and by ThioflavinS. Astrocytes were immunostained using a primary rabbit polyclonal antibody against GFAP (Dako, Glostrup, Denmark) and a fluorescently labelled secondary Cy2 antibody (Jackson ImmunoResearch Laboratories, West Grove, PA). Activated microglia were immunostained using a rat anti-murine CD11b primary antibody (AbD Serotec, Kidlington, UK) and a fluorescently labelled secondary Cy3 antibody (Jackson ImmunoResearch Laboratories). Astrocytes and microglia were labelled in a double incubation and sections were counterstained with DAPI to visualize cell nuclei.
Hippocampus and neocortex were measured separately, and the percent area of immunoreactivity or ThioflavinS staining per brain region was evaluated using automated image analysis software (Image Pro Plus, v. 6.2, Media Cybernetics, Bethesda, MD). Numbers and sizes of Aβ deposits were also counted automatically. Measurements from 5 sections per mouse were averaged and the individual mouse average was used to calculate the group means.

COX-1 = target: T1, COX-1 (Homo sapiens, UniProt P23219); assay: COX-1 enzyme assay (Cerep); assay type: biochemical; conditions: human recombinant, arachidonic acid 4 μM
T1 construct: purchased Cerep (Redmond, WA) 0726; host or cells: Sf9
Procedure: (§2) COX-1 and COX-2 enzyme assays were performed by Cerep (Redmond, WA, Catalog # 0726 and 0727). Briefly, the assays used human recombinant Sf9 cells and arachidonic acid (4 μM for COX-1 and 2 μM for COX-2) as the substrate. Production of PGE2 was detected by enzyme immunoassay.

γ-secretase (NotchΔE) = assay: NICD production (S3 cleavage of NotchΔE) in transfected HEK293 cells; conditions: HEK293 cells expressing NotchΔE, 20 h, up to 30 μM
Procedure: HEK293 cells (700,000 cells per assay condition) were transiently transfected with a NotchΔE, myc-tagged construct to produce a truncated Notch1 substrate, which is constitutively cleaved by γ-secretase (S3 cleavage) [62]. Control transfections were performed with an empty vector. […] The amounts of NICD and total Notch were quantified and NICD was expressed as a percentage of total Notch. The DMSO control condition was set at 100%. Cell viability was determined using the CellTiter-Blue® Cell Viability Assay (Promega).

[4] = MTS cytotoxicity assay in H4-APP751 cells; conditions: human
Procedure: Cytotoxicity was evaluated using CellTiter 96® AQueous One Solution Cell Proliferation Assay (MTS Assay, Promega, Madison, WI) according to the manufacturer’s protocol.

Tg2576 mice [5] = assay: Acute treatment study in Tg2576 mice, brain Aβ by ELISA after TBS extraction; conditions: 4 h
Procedure: Aβ peptide levels were quantified by sandwich ELISA. Plates were coated overnight at 4°C with either human anti-AβTotal (amino acids [aa] 27–37) or rodent anti-Aβ1-x (aa 1–8) rabbit polyclonal antibodies. For detection of Aβ38 and Aβ42, plates were coated with antibodies specific for the carboxyl-terminal neoepitope of each peptide. Antibodies were from Dr. Pankaj Mehta (Institute for Basic Research in Developmental Disabilities, Staten Island, NY) [58].
The 10 and 30 mg/kg doses were a solution and a suspension, respectively. […] After extraction of the brain, olfactory bulbs and hindbrain were removed and the cerebral hemispheres were cut into 4 pieces. […] All tissue samples were weighed, frozen in liquid nitrogen, and stored at −80°C until analysis.
In order to examine both soluble and insoluble pools of Aβ, sequential extraction of Tg2576 mouse brain samples was performed to produce 4 pools of Aβ, essentially as described elsewhere [37]. Briefly, brains were homogenized in 25 mM TBS, pH 7.4 with protease inhibitors (Mini Complete™) to release the soluble Aβ into the resulting supernatants after high speed ultracentrifugation. […] The extracted Aβ from each step was subjected to ELISA for human Aβ42, Aβ38, and AβTotal, as described above.

COX-2 = target: T2, COX-2 (Homo sapiens, UniProt P35354); assay: COX-2 enzyme assay (Cerep); assay type: biochemical; conditions: at 30 μM, human recombinant, arachidonic acid 2 μM
T2 construct: purchased Cerep (Redmond, WA) 0727; host or cells: Sf9
T2 sequence (P35354 18-604): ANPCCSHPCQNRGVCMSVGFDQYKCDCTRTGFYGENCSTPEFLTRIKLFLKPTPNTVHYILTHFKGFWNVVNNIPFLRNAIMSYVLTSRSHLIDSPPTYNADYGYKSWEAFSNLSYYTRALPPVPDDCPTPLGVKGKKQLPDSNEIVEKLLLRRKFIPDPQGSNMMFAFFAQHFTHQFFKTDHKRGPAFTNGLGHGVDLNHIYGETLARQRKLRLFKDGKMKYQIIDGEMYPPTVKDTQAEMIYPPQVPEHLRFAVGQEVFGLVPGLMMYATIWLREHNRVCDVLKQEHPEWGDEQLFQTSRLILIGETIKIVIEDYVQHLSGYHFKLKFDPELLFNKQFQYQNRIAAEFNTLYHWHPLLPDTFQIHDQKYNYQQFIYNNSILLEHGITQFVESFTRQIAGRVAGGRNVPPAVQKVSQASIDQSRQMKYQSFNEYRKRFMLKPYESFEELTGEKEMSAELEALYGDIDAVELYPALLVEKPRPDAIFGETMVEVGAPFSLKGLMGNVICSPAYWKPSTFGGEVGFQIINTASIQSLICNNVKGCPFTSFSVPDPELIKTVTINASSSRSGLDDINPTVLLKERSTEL
Procedure: as §2

γ-secretase (EphA4) = assay: EphA4 CTF accumulation in rat primary neocortical cultures (Western blot); conditions: 24 h, up to 10 μM
Procedure: Protein concentration of the lysate was determined by the BCA method, and 30 μg of total protein were loaded on a 10% Bis-Tris gel (Invitrogen). EphA4 CTF was visualized using an anti-EphA4-CTF antibody (Abnova, Walnut, CA) and an IRDye800CW® secondary antibody (Rockland Immunochemicals, Inc., Gilbertsville, PA). Detection was performed using an Odyssey scanner (LiCor Biosciences) and blots quantified using ImageJ software (available at http://rsbweb.nih.gov/ij).

Tg2576 mice [6] = assay: Chronic treatment of Tg2576 mice, sequentially extracted brain Aβ by ELISA; assay type: in vivo, mouse; conditions: 50 weeks
Text: as §1

T1 sequence (P23219 24-599): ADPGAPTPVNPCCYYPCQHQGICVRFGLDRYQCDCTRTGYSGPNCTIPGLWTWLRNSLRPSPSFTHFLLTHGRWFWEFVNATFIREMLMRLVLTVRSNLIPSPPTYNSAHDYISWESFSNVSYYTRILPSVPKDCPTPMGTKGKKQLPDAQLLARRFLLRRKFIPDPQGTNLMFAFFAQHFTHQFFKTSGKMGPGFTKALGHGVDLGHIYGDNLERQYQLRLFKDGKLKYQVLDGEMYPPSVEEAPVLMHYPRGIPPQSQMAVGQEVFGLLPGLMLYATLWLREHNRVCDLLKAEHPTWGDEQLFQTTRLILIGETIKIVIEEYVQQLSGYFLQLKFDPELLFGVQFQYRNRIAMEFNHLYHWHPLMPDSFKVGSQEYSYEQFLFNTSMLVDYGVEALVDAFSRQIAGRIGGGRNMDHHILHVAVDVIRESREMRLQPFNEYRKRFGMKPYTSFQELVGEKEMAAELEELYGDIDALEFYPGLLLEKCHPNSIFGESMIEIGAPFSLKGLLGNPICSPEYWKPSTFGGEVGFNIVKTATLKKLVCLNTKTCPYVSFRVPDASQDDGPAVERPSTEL

O=C(O)[C@H](CC1CCC1)c1cc(Cl)c(OCC(F)(F)F)c(-c2ccc(C(F)(F)F)cc2)c1 [EVP-0015962, (R)-2-(5-chloro-6-(2,2,2-trifluoroethoxy)-4’-(trifluoromethyl)biphenyl-3-yl)-3-cyclobutylpropanoic acid]
genotype-associated deficit in percent freezing (CFC) (Tg2576 mice [1]; 20 or 60 mg/kg/day in food, 11 weeks (p < 0.01)): reversed
genotype-associated deficit in percent freezing (CFC) (Tg2576 mice [1]; single dose 30 mg/kg p.o., 3 h prior to training): did not reverse this deficit
range of brain concentrations ([2]; food formulation 20 mg/kg/day): 1.5 to 3.1 µM
range of brain concentrations ([2]; food formulation 60 mg/kg/day): 4.9 to 9.7 µM
accumulation or cytochrome P450 enzyme induction (from brain concentrations) ([2]; Tg2576 mice, 50 weeks vs short-term treatments): did not demonstrate accumulation or cytochrome P450 enzyme induction
concentration at 50 weeks ([2]; Tg2576 mice, 20 mg/kg/day in food): 2.5 ± 0.2 µM
concentration at 50 weeks ([2]; Tg2576 mice, 60 mg/kg/day in food): 8.3 ± 0.6 µM
oral bioavailability ([2]; mice): orally bioavailable
6E10 Aβ plaque Number/mm^2 (Tg2576 mice [3]; hippocampus, 20 mg/kg/day): 61.0 (12.2)* percent of control
6E10 Aβ plaque Size (μm^2) (Tg2576 mice [3]; hippocampus, 20 mg/kg/day): 99.4 (15.7) percent of control
6E10 Aβ plaque percent area (Tg2576 mice [3]; hippocampus, 20 mg/kg/day): 62.1 (13.2)* percent of control
ThioflavinS Aβ plaque Number/mm^2 (Tg2576 mice [3]; hippocampus, 20 mg/kg/day): 55.2 (15.6)* percent of control
ThioflavinS Aβ plaque Size (μm^2) (Tg2576 mice [3]; hippocampus, 20 mg/kg/day): 56.5 (16.3) percent of control
ThioflavinS Aβ plaque percent area (Tg2576 mice [3]; hippocampus, 20 mg/kg/day): 40.7 (16.9)** percent of control
6E10 Aβ plaque Number/mm^2 (Tg2576 mice [3]; hippocampus, 60 mg/kg/day): 53.9 (16.8)* percent of control
6E10 Aβ plaque Size (μm^2) (Tg2576 mice [3]; hippocampus, 60 mg/kg/day): 104.1 (11.6) percent of control
6E10 Aβ plaque percent area (Tg2576 mice [3]; hippocampus, 60 mg/kg/day): 53.1 (15.2)* percent of control
ThioflavinS Aβ plaque Number/mm^2 (Tg2576 mice [3]; hippocampus, 60 mg/kg/day): 50.7 (12.8)* percent of control
ThioflavinS Aβ plaque Size (μm^2) (Tg2576 mice [3]; hippocampus, 60 mg/kg/day): 58.9 (27.0) percent of control
ThioflavinS Aβ plaque percent area (Tg2576 mice [3]; hippocampus, 60 mg/kg/day): 27.3 (6.5)** percent of control
6E10 Aβ plaque Number/mm^2 (Tg2576 mice [3]; neocortex, 20 mg/kg/day): 65.2 (8.8) percent of control
6E10 Aβ plaque Size (μm^2) (Tg2576 mice [3]; neocortex, 20 mg/kg/day): 105.5 (8.8) percent of control
6E10 Aβ plaque percent area (Tg2576 mice [3]; neocortex, 20 mg/kg/day): 69.2 (9.7) percent of control
ThioflavinS Aβ plaque Number/mm^2 (Tg2576 mice [3]; neocortex, 20 mg/kg/day): 64.3 (8.0) percent of control
ThioflavinS Aβ plaque Size (μm^2) (Tg2576 mice [3]; neocortex, 20 mg/kg/day): 87.8 (12.2) percent of control
ThioflavinS Aβ plaque percent area (Tg2576 mice [3]; neocortex, 20 mg/kg/day): 64.3 (14.3) percent of control
6E10 Aβ plaque Number/mm^2 (Tg2576 mice [3]; neocortex, 60 mg/kg/day): 71.3 (15.0) percent of control
6E10 Aβ plaque Size (μm^2) (Tg2576 mice [3]; neocortex, 60 mg/kg/day): 88.5 (5.4) percent of control
6E10 Aβ plaque percent area (Tg2576 mice [3]; neocortex, 60 mg/kg/day): 65.3 (16.3) percent of control
ThioflavinS Aβ plaque Number/mm^2 (Tg2576 mice [3]; neocortex, 60 mg/kg/day): 59.6 (14.1) percent of control
ThioflavinS Aβ plaque Size (μm^2) (Tg2576 mice [3]; neocortex, 60 mg/kg/day): 58.1 (10.6)* percent of control
ThioflavinS Aβ plaque percent area (Tg2576 mice [3]; neocortex, 60 mg/kg/day): 29.9 (7.3)* percent of control
IC50 (COX-1): > 10 µM
levels of NICD produced (γ-secretase (NotchΔE)): did not affect
IC50 [4]: 5.56 ± 0.51 µM
decrease in brain Aβ42 compared to vehicle-treated mice (Tg2576 mice [5]; 10 mg/kg p.o., TBS extraction (NS)): 22%
decrease in brain Aβ42 compared to vehicle-treated mice (Tg2576 mice [5]; 30 mg/kg p.o., TBS extraction (p < 0.05)): 39%
brain AβTotal (Tg2576 mice [5]; 10 or 30 mg/kg p.o.): remained unchanged
percent inhibition for COX-2 (COX-2): 56%
EphA4 CTF accumulation (γ-secretase (EphA4)): did not result in EphA4 CTF accumulation
Aβ38 in the TBS soluble fraction (Tg2576 mice [6]; 20 mg/kg/day): did not produce a significant increase
percent reduction in Aβ42 in the TBS soluble fraction (Tg2576 mice [6]; 20 mg/kg/day): 53%
reduction in AβTotal in the formic acid extractable fraction (Tg2576 mice [6]; 20 mg/kg/day): 49%
reduction in formic acid extractable Aβ42 (Tg2576 mice [6]; 20 mg/kg/day): 53%
age-related increase in soluble and insoluble Aβ42 (Tg2576 mice [6]; 60 mg/kg/day): prevented the dramatic increase
increase in Aβ38 in the TBS soluble fraction (Tg2576 mice [6]; 60 mg/kg/day): 78%
percent reduction in Aβ42 in the TBS soluble fraction (Tg2576 mice [6]; 60 mg/kg/day): 89%
reduction in AβTotal in the formic acid extractable fraction (Tg2576 mice [6]; 60 mg/kg/day): 64%
reduction in formic acid extractable Aβ42 (Tg2576 mice [6]; 60 mg/kg/day): 86%
Aβ38 in the formic acid extractable fraction (Tg2576 mice [6]; 20 or 60 mg/kg/day): not significantly changed
AβTotal in the TBS soluble fraction (Tg2576 mice [6]; 20 or 60 mg/kg/day): unchanged
age-related increase in Aβ42 (Tg2576 mice [6]; lower dose (20 mg/kg/day)): partially effective
